According to PMC3728097 (PLoS ONE, 2013):
Entries after “also recorded” stand apart in the source; their conditions may differ. One block for each compound: values may come before it.

What was measured:
[1] = molecular target: α7 nAChRs; details: cited from earlier work
[2] = molecular target: T1, α7 nAChRs in the rat brain (Rattus norvegicus, UniProt Q05941); assay: In vitro saturation binding assay of ^125I-CHIBA-1001 in rat brain membranes; details: 4°C, n = 5, mean ± S.E.M.
T1 construct: aliquots of a membrane suspension (200 µl), ^125I-CHIBA-1001 and the indicated concentrations of test drug; from tissue; host or cells: rat brain membranes (Sprague Dawley)
T1 sequence (Q05941 23-502): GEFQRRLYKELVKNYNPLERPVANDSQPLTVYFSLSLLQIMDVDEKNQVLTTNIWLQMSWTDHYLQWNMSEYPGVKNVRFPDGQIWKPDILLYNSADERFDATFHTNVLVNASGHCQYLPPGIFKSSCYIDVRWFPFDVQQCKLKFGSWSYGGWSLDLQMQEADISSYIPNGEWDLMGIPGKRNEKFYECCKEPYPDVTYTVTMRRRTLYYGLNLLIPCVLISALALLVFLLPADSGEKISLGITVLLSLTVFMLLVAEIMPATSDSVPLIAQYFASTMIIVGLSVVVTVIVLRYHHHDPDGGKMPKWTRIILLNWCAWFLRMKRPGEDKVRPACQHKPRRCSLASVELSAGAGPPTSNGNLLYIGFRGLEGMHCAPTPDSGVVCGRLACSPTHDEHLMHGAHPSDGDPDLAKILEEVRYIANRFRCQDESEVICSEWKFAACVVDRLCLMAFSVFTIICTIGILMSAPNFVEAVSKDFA
Protocol: Male SD (Sprague Dawley) rats (8–10 week olds, 180–200 g) were used for the experiments. After sacrificing the rats by decapitation, the brains were rapidly removed from the skulls.
The tissues of each brain region were homogenized in 15 volumes of 50 mM Tris–HCl buffer (120 mM NaCl, 2 mM KCl, 1 mM CaCl2, 1 mM MgCl 2, pH 7.4 at 4°C) using a Polytron homogenizer at setting No. 5 for 30s on ice. The membranes were centrifuged in 50 ml polypropylene tube at 48,000 g for 20 min at 4°C. The supernatant was discarded and the pellet re-suspended, homogenized and centrifuged as above. The membrane pellet was washed and re-suspended in ice-cold buffer and was then centrifuged two more times. The final pellet was re-suspended in 10 volumes of the same buffer.
Assays of the binding of ^125I-CHIBA-1001 to α7 nAChRs in the rat brain were performed according to the method published previously [21], [22]. The reaction mixtures were consisted of aliquots of a membrane suspension (200 µl), ^125I-CHIBA-1001 and the indicated concentrations of test drug in a final volume of 0.5 ml in duplicate. Non-specific binding was estimated in the presence of 30 µM SSR180711. Binding reaction was conducted for 150 min at 4°C for the equilibrium saturation and inhibition studies.

[3] = molecular target: α7 nAChRs in the monkey brain (Macaca mulatta, UniProt Q866A2); type: in vivo; details: monkey SPECT, pretreatment SSR180711 5.0 mg/kg i.v.
α7 nAChRs in the monkey brain, sequence (Q866A2 23-502): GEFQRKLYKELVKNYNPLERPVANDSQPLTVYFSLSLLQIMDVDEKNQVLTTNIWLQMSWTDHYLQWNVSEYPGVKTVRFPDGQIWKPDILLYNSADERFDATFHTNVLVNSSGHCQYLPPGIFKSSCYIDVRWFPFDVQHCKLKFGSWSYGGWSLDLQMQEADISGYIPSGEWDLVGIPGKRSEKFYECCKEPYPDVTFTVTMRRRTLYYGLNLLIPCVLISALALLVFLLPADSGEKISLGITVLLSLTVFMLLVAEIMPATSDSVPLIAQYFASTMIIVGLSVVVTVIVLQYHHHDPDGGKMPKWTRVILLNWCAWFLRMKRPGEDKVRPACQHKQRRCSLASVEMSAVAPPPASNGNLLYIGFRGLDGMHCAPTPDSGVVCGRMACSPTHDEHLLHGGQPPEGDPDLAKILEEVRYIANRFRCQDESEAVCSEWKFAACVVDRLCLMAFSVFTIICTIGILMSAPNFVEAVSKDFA
Protocol: Four monkeys (male, 7 year olds, 8 kg) were selected for SPECT imaging. Immediately after HPLC column purification, 50 µg (74 MBq) of the ^131I-CHIBA-1001 in 2 mL of normal saline were injected into the monkeys via intravenous administration after administration of saline (control) or SSR180711 (5.0 mg/kg, i.v.). […] At 0.5, 1.5, and 2 h after injection, imaging was performed in the Department of Nuclear Medicine, Peking University First Hospital, using SPECT (SPR SPECT; GE Healthcare, Inc.) equipped with a high-energy general purpose (HEGP) collimator. Static images (200,000 counts), obtained with a zoom factor of 2.0, were digitally stored in a 64 × 64 matrix.

[4] = blocked cerebellum as nonspecific binding

Compound: [^125I]methyllycaconitine [^125I-MLA]
Kd [1]: 1.8 nM

Compound: O=C(Oc1ccc([125I])cc1)N1CCN2CCC1CC2 [^125I-CHIBA-1001]
B max [2]: 63.97±17.45 fmol/mg protein

Compound: O=C(Oc1ccc(I)cc1)N1CCN2CCC1CC2 [^125I-CHIBA-1001]
Kd ([2]; read-out: apparent Kd): 81.9 ± 7.95 nM

blockade of ^131I-CHIBA-1001 uptake in the cerebellum [3]: minimal
decrease of specific binding of ^131I-CHIBA-1001 in the frontal cortex [3, 4]: 38.5±2.1%
decrease of specific binding of ^131I-CHIBA-1001 in the thalamus [3, 4]: 35.7±2.8%
Compound: O=C(Oc1ccc(Br)cc1)N1CCN2CCC1CC2 [SSR180711]
effect of pretreatment on uptake of ^131I-CHIBA-1001 radioactivity in the brain [3]: blocked the radioactive uptake in the brain successfully; also recorded: decreased
